Experimental data: US9827189B2, “Stable parenteral DNJ compositions” (AMICUS THERAPEUTICS, INC., priority 2013, dated 2017)

What was measured:
[1] = Stability and integrity of 1-DNJ-HCl in buffer solutions at 60° C. by NP-HPLC (UV and CAD) and discoloration; format: physicochemical; settings: 1-DNJ/buffer formulations with a pH in the range of about 6.0-7.5
Experimental: 1-DNJ-HCl was dissolved in sodium phosphate buffer. 1-DNJ-HCl concentration was 60 mg/mL; sodium phosphate buffer concentration was 100 mM at pH 4.89. The formulation was stored at 60° C. for 4 days. 1-DNJ-HCl solution in water was used as a control. Reaction rate for small molecules such as 1-DNJ-HCl generally follows Arrhenius equation where reaction rate nearly doubles for every 10° C. increase in the temperature. Thus, under this model, the reaction rate at 60° C. would be 2^5 or 32 times the reaction rate at 10° C. Therefore during 4 days at 60° C. 1-DNJ-HCl would degrade by approximately the same percentage as during 128 days (4*32) at 10° C. The stability of 1-DNJ-HCl was measured by normal phase high performance liquid chromatography (NP-HPLC). 1-DNJ-HCl was recorded by UV chromatograms and by Charged Aerosol Detector (CAD) chromatograms. Mobile phase consisted of ACN/30 mM Ammonium Acetate (90/10, v/v). The flow rate was 1.0 ml/min with 5 μl injection at 400° C. UV absorbance was measured at 220 nm CAD detector settings were 35.0 psi, Gain: 100 pA. 1-DNJ-HCl was dissolved in sodium acetate buffer. The 1-DNJ-HCl concentration was 60 mg/mL; sodium acetate buffer concentration was 50 mM at pH 5.5. The formulation was stored at 60° C. for 4 days. 1-DNJ-HCl solution in water was used as control. Reaction rate for small molecules such as 1-DNJ-HCl generally follows the Arrhenius equation, in which the reaction rate nearly doubles for every 10°K increase in the temperature. Thus the reaction rate, under this model, at 60° C. would be 2^5 or 32 times the reaction rate at 10° C. Therefore during 4 days at 60° C. 1-DNJ-HCl would degrade by approximately same percentage as during 128 days at 10° C. The stability of 1-DNJ-HCl was measured by NP-HPLC. Presence of 1-DNJ-HCl was recorded by UV absorbance detector and by Charged Aerosol Detector. Mobile phase consisted of ACN/30 mM Ammonium Acetate (90/10, v/v). The flow rate was 1.0 ml/min with 5 μl injection at 400 C. UV absorbance was measured at 220 nm. CAD detector settings were 35.0 psi, Gain: 100 pA. 1-DNJ-HCl was dissolved in sodium citrate buffer that further includes EDTA. 1-DNJ-HCl concentration was 60 mg/mL; sodium citrate buffer concentration was 50 mM at pH 4.6. The EDTA concentration was 0.05% w/v. Some samples were stored under the nitrogen atmosphere (essentially 100% nitrogen) while others were stored under air. The formulation was stored at 60° C. for 8 days. Stability of 1-DNJ-HCl was measured by NP-HPLC. Presence of 1-DNJ-HCl was recorded by UV absorbance detector and by Charged Aerosol Detector. Mobile phase consisted of ACN/30 mM Ammonium Acetate (90/10, v/v). The flow rate was 1.0 ml/min with 5 μl injection at 400 C. UV absorbance was measured at 220 nm. CAD detector settings were 35.0 psi, Gain: 100 pA. 1-DNJ-HCl was dissolved in sodium citrate buffer. 1-DNJ-HCl concentration was 60 mg/mL; sodium citrate buffer concentration was 50 mM at pH 4.7. The formulation was stored at 60° C. for 8 days. 1-DNJ-HCl solution in water was used as control. Stability of 1-DNJ-HCl was measured by NP-HPLC. Presence of 1-DNJ-HCl was recorded by UV absorbance detector and by Charged Aerosol Detector. Mobile phase consisted of ACN/30 mM Ammonium Acetate (90/10, v/v). The flow rate was 1.0 ml/min with 5 μl injection at 400 C. UV absorbance was measured at 220 nm. CAD detector settings were 35.0 psi, Gain: 100 pA. 1-DNJ-HCl was dissolved in sodium citrate buffer. 1-DNJ-HCl concentration was 60 mg/mL; sodium citrate buffer concentration was 50 mM at pH 5.0. The formulation was stored at 60° C. for 17 days. The samples were stored under the nitrogen atmosphere (essentially 100% nitrogen). 1-DNJ-HCl solution in water was used as control. Reaction rate for small molecules such as 1-DNJ-HCl generally follows Arrhenius equation where reaction rate nearly doubles for every 10°K increase in the temperature. Thus reaction rate at 60° C. would be 2^5 or 32 times the reaction rate at 10° C. Therefore during 17 days at 60° C. […]

human whole blood = assay: Hemolytic potential in human whole blood; format: cell-based; settings: 37 ° C. 30 minutes
Experimental: (§1) 1-DNJ-HCl was dissolved in sodium citrate buffer. 1-DNJ-HCl concentration was 30 mg/mL (resulting free 1-DNJ concentration was 25 mg/mL); sodium citrate buffer concentration was 50 mM at pH 5.0. 1-DNJ-HCl formulation was added to whole blood samples of male human, rat, and cynomolgus monkey. […]. Buffer served as a negative control, while Triton-X 100 (Lysing agent) served as a positive control. Additionally blood sample without any additions was used as a negative control. The samples were stored at 4° C. Blood samples were incubated at 37 ° C. for 30 minutes with the 1-DNJ-HCl formulation, after which the samples were centrifuged. The amount of hemoglobin in the supernatant from each centrifuged sample was measured using a commercially available hemoglobin assay kit (BioAssay Systems, QuantiChrom™ Hemoglobin Assay Kit) and the Tecan microplate reader.

[2] = test system: cynomolgus monkey whole blood; assay: Hemolytic potential in cynomolgus monkey whole blood; format: cell-based; settings: 37 ° C. 30 minutes
Experimental: as §1

rat whole blood = assay: Hemolytic potential in rat whole blood; format: cell-based, Sprague Dawley rat; settings: 37 ° C. 30 minutes
Experimental: as §1

[3] = 500 μL blood mixed with 500 μL sample (30 mg/mL AT2220 or 0.1% Triton X-100)
[4] = 500 μL blood mixed with 500 μL sample, 30 mg/mL AT2220 dilution 1, 0.1% Triton X-100 dilution 100
[5] = supernatant, 500 μL blood mixed with 500 μL sample (30 mg/mL AT2220 or 0.1% Triton X-100)

Row | Compound | Discoloration [1] | % RBC lysis (human whole blood; [3]) | Avg OD (n = 4) (human whole blood; [4]) | Hemoglobin (human whole blood; [5]) | % RBC lysis [2, 3] | Avg OD (n = 4) [2, 4] | Hemoglobin [2, 5] | % RBC lysis (rat whole blood; [3]) | Avg OD (n = 4) (rat whole blood; [4]) | Hemoglobin (rat whole blood; [5])
1 | OC[C@H]1NC[C@H](O)[C@@H](O)[C@@H]1O [1-DNJ, 1-deoxynojirimycin] | discoloration may occur | – | – | – | – | – | – | – | – | –
2 | Triton X-100 | – | 100.0% | 0.2768 | 6899 mg/dL | 100.0% | 0.2000 | 4984 mg/dL | 100.0% | 0.2567 | 6398 mg/dL
